# Data as given in patent US8551999B2, “Heterocyclic compound and pharmaceutical composition thereof” (Otsuka Pharmaceutical Co., Ltd., priority 2007, dated 2013).
row,SMILES,melting point
1,"Cc1ccc(S(=O)(=O)N(C)c2cnc(Oc3ccc4cc(C(=O)N5CCN(Cc6ccc(OC(C)C)cc6)CC5)n(C)c4c3)nc2)cc1 [Example 44, N-(2-{2-[4-(4-Isopropoxybenzyl)piperazine-1-carbonyl]-1-methyl-1H-indol-6-yloxy}pyrimidin-5-yl)-4,N-dimethylbenzenesulfonamide]",154.3 to 155.1 °C
2,Cl.Cn1c(C(=O)N2CCN(Cc3ccc(OC(CF)CF)cc3)CC2)cc2ccc(Oc3ccc(NC(=O)c4ccc(C(F)(F)F)cc4F)cn3)cc21,267.3 to 267.7 °C
3,"COc1ccccc1CN1CCN(C(=O)c2cc3cc(Oc4ccc(NC(=O)c5ccc(C(F)(F)F)cc5)cn4)ccc3n2C)CC1.O=C(O)C(=O)O [Example 354, N-(6-{2-[4-(2-Methoxybenzyl)piperazine-1-carbonyl]-1-methyl-1H-indol-5-yloxy}pyridin-3-yl)-4-trifluoromethylbenzamide oxalate]",142 to 144 °C
4,"COc1ccc(CN2CCN(C(=O)c3cc4cc(Oc5ccc(N(C)C(=O)c6ccc(C(F)(F)F)cc6)cn5)ccc4n3C)CC2)nc1.O=C(O)/C=C\C(=O)O [Example 387, N-(6-{2-[4-(5-Methoxypyridin-2-ylmethyl)piperazine-1-carbonyl]-1-methyl-1H-indol-5-yloxy}pyridin-3-yl)-N-methyl-4-trifluoromethyl-benzamide maleate]",143 to 144 °C
5,"CC(C)CN1CCN(C(=O)c2cc3cc(Oc4ccc(N(C)C(=O)c5ccc(C(F)(F)F)cc5)cn4)ccc3n2C)CC1 [Example 562, N-{6-[2-(4-Isobutylpiperazine-1-carbonyl)-1-methyl-1H-indol-5-yl-oxy]pyridin-3-yl}-N-methyl-4-trifluoromethylbenzamide]",163 to 164 °C
6,"Br.CN(C(=O)c1ccc(C(F)(F)F)cc1)c1ccc(Oc2ccc3c(c2)cc(C(=O)N2CCN(Cc4ccccc4)CC2)n3C)nc1 [Example 329, N-{6-[2-(4-Benzylpiperazine-1-carbonyl)-1-methyl-1H-indol-5-yl-oxy]pyridin-3-yl}-N-methyl-4-trifluoromethylbenzamide hydrobromide]",189 to 201 °C
7,CN(c1ccc(Oc2ccc3cc(C(=O)N4CCN(Cc5ccc(OCC(F)(F)F)cc5)CC4)n(C)c3c2)nc1)S(C)(=O)=O.Cl,252.7 to 253.6 °C
8,"Br.Br.COc1ccc(CN2CCN(C(=O)c3cc4cc(Oc5ccc(NC(=O)c6ccc(Cl)c(Cl)c6)cn5)ccc4n3C)CC2)nc1 [Example 388, 3,4-Dichloro-N-(6-{2-[4-(5-methoxypyridin-2-ylmethyl)piperazine-1-carbonyl]-1-methyl-1H-indol-5-yloxy}pyridin-3-yl)benzamide dihydrobromide]",223 to 225 °C
9,"Br.CC(C)Oc1ccc(CN2CCN(C(=O)c3cc4ccc(Oc5ccc(N(C)C(=O)c6ccc(Cl)c(Cl)c6)cn5)cc4n3C)CC2)cc1 [Example 486, 3,4-Dichloro-N-(6-{2-[4-(4-isopropoxybenzyl)piperazine-1-carbonyl]-1-methyl-1H-indol-6-yloxy}pyridin-3-yl)-N-methyl-benzamide hydrobromide]",220.2 to 223.5 °C
10,"Br.Cn1c(C(=O)N2CCN(Cc3ccccc3)CC2)cc2cc(Oc3ccc(NCc4ccc(Cl)c(Cl)c4)cn3)ccc21 [Example 334, (4-Benzylpiperazin-1-yl)(5-{5-[(3,4-dichlorophenyl)methylamino]-pyridin-2-yloxy}-1-methyl-1H-indol-2-yl)methanone hydrobromide]",209 to 217 °C
11,"Br.CN(c1ccc(C(F)(F)F)cc1)c1ccc(Oc2ccc3c(c2)cc(C(=O)N2CCN(Cc4ccc5c(c4)OCO5)CC2)n3C)nc1 [Example 335, (4-Benzo[1,3]dioxol-5-ylmethylpiperazin-1-yl)(1-methyl-5-{5-[methyl(4-trifluoromethylphenyl)amino]pyridin-2-yloxy}-1H-indol-2-yl)methanone hydrobromide]",211 to 215 °C
12,"Br.Cn1c(C(=O)N2CCN(Cc3ccc(OC(F)(F)F)cc3)CC2)cc2ccc(Oc3ccc(NC(=O)c4ccc(Cl)c(Cl)c4)cn3)cc21 [Example 264, 3,4-Dichloro-N-(6-{1-methyl-2-[4-(4-trifluoromethoxybenzyl)-piperazine-1-carbonyl]-1H-indol-6-yloxy}pyridin-3-yl)benzamide hydrobromide]",261.6 to 264.7 °C
13,"Cn1c(C(=O)N2CCN(Cc3ccc(C#N)cc3)CC2)cc2cccc(Oc3ccc(NC(=O)c4ccc(C(F)(F)F)cc4)cn3)c21 [Example 245, N-(6-{2-[4-(4-Cyanobenzyl)piperazine-1-carbonyl]-1-methyl-1H-indol-7-yloxy}pyridin-3-yl)-4-trifluoromethylbenzamide]",228 to 229 °C
14,"Br.Cn1c(C(=O)N2CCN(Cc3ccc(OCC(F)F)cc3)CC2)cc2ccc(Oc3ccc(NC(=O)c4ccc(C(F)(F)F)cc4)cn3)cc21 [Example 479, N-[6-(2-{4-[4-(2,2-Difluoroethoxy)benzyl]piperazine-1-carbonyl}-1-methyl-1H-indol-6-yloxy)pyridin-3-yl]-4-trifluoromethyl-benzamide hydrobromide]",260.7 to 261.2 °C
15,Cc1ccc(C(=O)N(C)c2ccc(Oc3ccc4cc(C(=O)N5CCN(Cc6ccc(OC(C)C)cc6)CC5)n(C)c4c3)nc2)cc1.Cl,230.1 to 232 °C
16,Cl.Cn1c(C(=O)N2CCN(Cc3ccc(OC(F)F)cc3)CC2)cc2ccc(Oc3ncc(NC(=O)c4ccc(C(F)(F)F)cc4)cn3)cc21,247.7 to 249.8 °C
17,"Br.CN(C(=O)c1ccc(Cl)c(Cl)c1)c1ccc(Oc2ccc3cc(C(=O)N4CCN(Cc5ccc(OCC(F)(F)F)cc5)CC4)n(C)c3c2)nc1 [Example 484, 3,4-Dichloro-N-methyl-N-[6-(1-methyl-2-{4-[4-(2,2,2-trifluoro-ethoxy)benzyl]piperazine-1-carbonyl}-1H-indol-6-yloxy)pyridin-3-yl]benzamide hydrobromide]",197.1 to 201.5 °C
18,"Br.COCc1ccc(CN2CCN(C(=O)c3cc4ccc(Oc5ccc(NC(=O)c6ccc(Cl)c(Cl)c6)cn5)cc4n3C)CC2)cc1 [Example 259, 3,4-Dichloro-N-(6-{2-[4-(4-methoxymethylbenzyl)piperazine-1-carbonyl]-1-methyl-1H-indol-6-yloxy}pyridin-3-yl)benzamide hydrobromide]",243.6 to 247.7 °C
19,"Br.Cn1c(C(=O)N2CCN(Cc3ccc(OC(F)(F)C(F)F)cc3)CC2)cc2ccc(Oc3ccc(NC(=O)c4ccc(C(F)(F)F)cc4)cn3)cc21 [Example 250, N-[6-(1-Methyl-2-{4-[4-(1,1,2,2-tetrafluoroethoxy)benzyl]-piperazine-1-carbonyl}-1H-indol-6-yloxy)pyridin-3-yl]-4-tri-fluoromethylbenzamide hydrobromide]",279 to 282 °C (dec.)
20,"Br.CC(C)Oc1ccc(CN2CCN(C(=O)c3cc4ccc(Oc5ccc(NC(=O)c6ccc(C(F)(F)F)cc6)cn5)cc4n3C)CC2)cc1 [Example 476, N-(6-{2-[4-(4-Isopropoxybenzyl)piperazine-1-carbonyl]-1-methyl-1H-indol-6-yloxy}pyridin-3-yl)-4-trifluoromethylbenzamide hydrobromide]",258.7 to 259.6 °C
21,"COc1ccc(CN2CCN(C(=O)c3cc4cc(Oc5ncc(N(C)C(=O)c6ccc(C(F)(F)F)cc6)cn5)ccc4n3C)CC2)cc1.O=C(O)/C=C\C(=O)O [Example 381, N-(2-{2-[4-(4-Methoxybenzyl)piperazine-1-carbonyl]-1-methyl-1H-indol-5-yloxy}pyrimidin-5-yl)-N-methyl-4-trifluoromethylbenzamide maleate]",160 to 161 °C
22,"Br.Br.CN(C(=O)c1ccc(C(F)(F)F)cc1)c1ccc(Oc2ccc3c(c2)cc(C(=O)N2CCN(Cc4ccc(C#N)cn4)CC2)n3C)nc1 [Example 570, N-(6-{2-[4-(5-Cyanopyridin-2-ylmethyl)piperazine-1-carbonyl]-1-methyl-1H-indol-5-yloxy}pyridin-3-yl)-N-methyl-4-trifluoromethyl-benzamide dihydrobromide]",211 to 215 °C
23,"CN(c1ccc(Oc2ccc3cc(C(=O)N4CCN(Cc5ccc(OCC6CC6)cc5)CC4)n(C)c3c2)nc1)S(=O)(=O)c1ccc(Cl)c(Cl)c1 [Example 514, 3,4-Dichloro-N-(6-{2-[4-(4-cyclopropylmethoxybenzyl)piperazine-1-carbonyl]-1-methyl-1H-indol-6-yloxy}pyridin-3-yl)-N-methyl-benzenesulfonamide]",194.1 to 195.8 °C
24,"Br.COc1ccc(CN2CCN(C(=O)c3cc4cc(Oc5ccc(N(C)C(=O)c6ccc(C(F)(F)F)c(C)c6)cn5)ccc4n3C)CC2)cc1 [Example 20, N-(6-{2-[4-(4-Methoxybenzyl)piperazine-1-carbonyl]-1-methyl-1H-indol-5-yloxy}pyridin-3-yl)-3,N-dimethyl-4-trifluoromethyl-benzamide hydrobromide]",199 to 202 °C
25,"Br.CCCOc1ccc(CN2CCN(C(=O)c3cc4ccc(Oc5ccc(N(C)C(=O)c6ccc(C(F)(F)F)cc6Cl)cn5)cc4n3C)CC2)cc1 [Example 450, 2-Chloro-N-methyl-N-(6-{1-methyl-2-[4-(4-propoxybenzyl)-piperazine-1-carbonyl]-1H-indol-6-yloxy}pyridin-3-yl)-4-tri-fluoromethylbenzamide hydrobromide]",238.6 to 240.1 °C
26,"Br.CCN(C(=O)Nc1ccc(C(F)(F)F)cc1)c1ccc(Oc2ccc3c(c2)cc(C(=O)N2CCN(Cc4ccccc4)CC2)n3C)nc1 [Example 580, 1-{6-[2-(4-Benzylpiperazine-1-carbonyl)-1-methyl-1H-indol-5-yl-oxy]pyridin-3-yl}-1-ethyl-3-(4-trifluoromethylphenyl)urea hydrobromide]",224 to 230 °C
27,Cc1cc(C(=O)Nc2ccc(Oc3ccc4cc(C(=O)N5CCN(Cc6ccc(OCC(F)(F)F)cc6)CC5)n(C)c4c3)nc2)ccc1Cl.Cl,182.9 °C
28,"Br.Cn1c(C(=O)N2CCN(Cc3ccc(OC(F)F)cc3)CC2)cc2cc(Oc3ccc(NC(=O)c4ccc(C(F)(F)F)cc4)cn3)ccc21 [Example 400, N-(6-{2-[4-(4-Difluoromethoxybenzyl)piperazine-1-carbonyl]-1-methyl-1H-indol-5-yloxy}pyridin-3-yl)-4-trifluoromethylbenzamide hydrobromide]",229 to 231 °C
